Results taken from ChEMBL document CHEMBL5046279, “Discovery of a Partial Glucokinase Activator Clinical Candidate: Diethyl ((3-(3-((5-(Azetidine-1-carbonyl)pyrazin-2-yl)oxy)-5-isopropoxybenzamido)-1H-pyrazol-1-yl)methyl)phosphonate (BMS-820132)” (J Med Chem, 2022).
Activity calls are given as the source filed them.

Columns and labels:
Assay type in all cases: functional, organism-based
Mus musculus [1] = species on record: Mus musculus; test: Anti-hyperglycemic activity in C57BL/6J DIO mouse assessed as reduction in plasma glucose level incubated for 1 hr by OGTT; conditions: dose 1-10 µM/Kg
Mus musculus [2] = test: Anti-hyperglycemic activity in C57BL/6J DIO mouse assessed as reduction in plasma glucose level at 0.3 umol/kg at 120 mins post dose by OGTT; conditions: dose 0.3 µM/Kg
Mus musculus [3] = test: Anti-hyperglycemic activity in C57BL/6J DIO mouse assessed as reduction in plasma glucose level at 3 to 30 umol/kg measured on day 1 by OGTT; conditions: dose 3-30 µM/Kg

Measured: Activity

CCOP(=O)(Cn1ccc(NC(=O)c2cc(Oc3cnc(C(=O)N4CCC4)cn3)cc(OC(C)C)c2)n1)OCC
active: Mus musculus [1] Dose-Dependent Effect | Mus musculus [2] | Mus musculus [3]
